In patent US11752157B2, “Oxytocin receptor antagonist therapy in the luteal phase for implantation and pregnancy in women undergoing assisted reproductive technologies” (Ferring B.V., priority 2014, dated 2023):
Where a SMILES comes first, the peptide text is derived from it. Bridges are numbered along the chain shown (N, C = ends). [ ]: non-standard residue; d: D form. Orn = NCCC[C@H](N)C(=O)O; Mpa = O=C(O)CCS

How the values were obtained:
[1] = system: IVF/ICSI patients; details: cited from earlier work
[2] = system: IVF/ICSI patients; test: BASIC randomized, placebo-controlled, double-blind clinical trial: barusiban subcutaneously on the day of transfer, implantation in IVF/ICSI patients; type: in vivo, human
Source text: Example 1: A randomized, placebo-controlled, double-blind, parallel groups, multinational, multicenter trial assessing the effect of barusiban administered subcutaneously on the day of transfer on implantation and pregnancy rates in IVF/ICSI patients
BASIC was a randomized, double-blind, placebo-controlled, parallel groups, multinational, multicenter trial. It was designed to evaluate the effects of barusiban, administered either on the day of cleavage-stage embryo transfer or on the day of blastocyst transfer, on ongoing implantation rate in IVF/ICSI patients. The patients underwent controlled ovarian stimulation in the long GnRH agonist or GnRH antagonist protocol, received hCG for triggering of final follicular maturation, had undergone oocyte retrieval, and had daily luteal phase support by supplementation with vaginal progesterone starting on day 1 post-retrieval, and transfer on day 3 or 5 post-retrieval. Patients were randomized in a 1:1 ratio to either the barusiban group or the placebo group, with stratification according to the day of transfer (day 3 post-retrieval or day 5 post-retrieval) and the number of embryos/blastocysts to be transferred (1 or 2). In total, 255 IVF/ICSI patients were randomized in the trial and contributing with 440 embryos/blastocysts.
Investigational medicinal product, i.e., barusiban or placebo according to randomization, was administered as subcutaneous injections at two time points: 1st administration of 40 mg barusiban or placebo was […] prior to transfer and the 2nd administration of 10 mg barusiban or placebo was […] after the 1st administration.
Transfer was performed on day 3 (cleavage-stage embryos) or day 5 (blastocysts) after oocyte retrieval. On day 3, only embryos of good quality defined as ≥6 blastomeres and ≤20% fragmentation were transferred. On day 5, blastocysts with expansion and hatching status 3, 4, 5 or 6 were transferred. The actual number of transferred embryos/blastocysts for each individual patient depended on the availability of embryos; blastocysts of the required morphological quality, local regulations and clinical practice for the patient's age, but the maximum number was 2.
Key aspects related to the transfer procedure had been standardized. A speculum was inserted into the vagina and cleaning of the vagina and cervix was done according to local practices but with minimal manipulation and disturbance. Soft or ultrasoft catheters were used. The outer sheath of the catheter was inserted just protruding to the internal os (i.e. keeping the outer sheath in the cervical canal). The embryo(s)/blastocyst(s) were loaded into the inner sheath which was then inserted through the outer sheath. Using abdominal ultrasound guidance, the embryo(s)/blastocyst(s) were placed 1.5-2.0 cm from the fundus. The time from loading the inner catheter to placing the embryo(s)/blastocyst(s) should not have exceeded 1 min. After placement, the inner and outer catheters were withdrawn and checked for retained embryo(s)/blastocyst(s), mucus and blood. After confirmation that there were no embryo(s)/blastocyst(s) left in the catheters, the speculum was subsequently removed; this occurred approximately within 2 min after placement of the embryo(s)/blastocyst(s). Any difficulties/eventualities occurring during the transfer procedure were recorded.
Patients received vaginal progesterone tablets 100 mg twice daily from the day after oocyte retrieval and until the day of the clinical pregnancy visit. On the day of transfer, patients should insert the progesterone tablets at least 3 hours before transfer and at least 3 hours after transfer. Ongoing implantation rate (primary endpoint) was defined as the number of intrauterine viable fetuses 10-11 weeks after transfer divided by number of embryos/blastocysts transferred. […]

Row | Compound | increase in implantation or live birth rates compared to placebo ([1]; administration on day 2 or day 3 post-retrieval (early luteal phase)) | live birth rate ([1]; cleavage-stage embryo transfer on day 2 or day 3 post-retrieval, N=800, placebo 38.0%) | effect on improving ongoing implantation rate ([2]; blastocyst transfer on day 5 (receptive stage), p=0.0270) | odds ratio for ongoing implantation rate ([2]; blastocyst transfer on day 5 post-retrieval, vs placebo, CI 1.1-4.7, p=0.0270) | relative Δ of ongoing implantation rate vs placebo ([2]; blastocyst transfers (day 5), adjusted means 45% vs 27%) | adjusted mean of ongoing implantation rate ([2]; blastocyst transfers (day 5 post-retrieval), placebo 27%) | effect on ongoing implantation rate ([2]; cleavage-stage embryo transfer on day 3 (pre-receptive stage)) | odds ratio for ongoing implantation rate ([2]; cleavage-stage embryo transfer on day 3 post-retrieval, vs placebo, CI 0.3-1.2, p=0.1509) | odds ratio for ongoing implantation rate ([2]; overall (day 3+day 5), barusiban vs placebo, logistic regression, PP, 95% CI 0.7-1.8, p=0.6960) | observed overall ongoing implantation rate ([2]; overall (day 3+day 5 transfers), per-protocol population, 40 mg + 10 mg s.c. on day of transfer) | ongoing implantation rate ([2]; overall, intention-to-treat (ITT) population)
1 | CCOc1ccc(C[C@H]2NC(=O)CCSSC[C@@H](C(=O)N3CCC[C@H]3C(=O)N[C@@H](CCCN)C(=O)NCC(N)=O)NC(=O)[C@H](CC(N)=O)NC(=O)[C@H]([C@@H](C)O)NC(=O)[C@H]([C@@H](C)CC)NC2=O)cc1 [atosiban, 1-(3-mercaptopropanoic acid)-2-(O-ethyl-D-tyrosine)-4-L-threonine-8-L-ornithine-oxytocin] ([Mpa][dY](Et)ITNCP[Orn]G-NH2; disulfide 1-6) | no significant increase | 39.8% | – | – | – | – | – | – | – | – | –
2 | barusiban | – | – | significant | 2.3 | 67% | 45% | No effect | 0.3 | 1.1 | 27.1% | 26.2%
